Measured values: patent US20110077270A1, “Compositions and Methods for Treating Ocular Inflammation with Lower Risk of Increased Intraocular Pressure” (priority 2009, published 2011)
Where “and” joins values, the source holds several entries; their conditions need not be identical. Equal entries are not always repeated. Where two headings read alike, the source gives them in different places.

Tests used:
[1] = tested on: myocilin mRNA in monkey TM cells; experiment: Myocilin mRNA expression in monkey TM cells (qRT-PCR); type: cell-based, rhesus monkeys (Macaca mulatta); conditions: for EC50: expression of myocilin mRNA, weighted averages, two dose-response studies each using two monkey TM cell strains
Protocol: (§1) For each study, up to nine TM cell strains, each derived from an individual monkey, were tested separately. Cells were thawed and seeded into 12- or 48-well clusters (Falcon, BD Biosciences; 150,000 and 30,000 cells/well, respectively) in proliferation medium. When cells were 75% to 90% confluent proliferation medium was replaced by a 5:4 mixture of HESFM and Dulbecco's MEM, respectively, supplemented with 10% FBS, with added taurine, ascorbic acid phosphate, glutathione, and antibiotic as for proliferation medium (above), and with 2.72 g/L glucose and 1.72 g/L fructose. At confluence, the medium was changed to Dulbecco's MEM, containing 10% FBS^40, ascorbic acid phosphate, antibiotic, 2.72 g/L glucose and 1.72 g/L fructose. Cells were maintained as stable, confluent monolayers in this latter medium for 4 to 7 days before experimental treatments commenced.
After quantification of purified total RNA (Quant-iT RNA Assay kit, Molecular Probes, Eugene, Oreg.), equivalent amounts of this RNA were apportioned to generate first-strand cDNAs for each treatment sample, using random primers, (Affinity Script, Stratagene, La Jolla, Calif.). Oligonucleotide myocilin primers, designed based on the cynomolgus MYOC gene, and fluorescent Taqman probe (Applied Biosystems, Foster City, Calif.) were used for PCR amplification. Equal amounts of total RNA-equivalent mass (approximate range […]) reactant cDNA were added to the PCR Master Mix (Stratagene) and myocilin primers/Taqman probe. Amplification was performed in a thermocycler (Mx3005P, Stratagene), with an initial denaturation step at 95° C. for 10 min, followed by 40 cycles of 95° C. for 15 sec and 60° C. for 1 min for extension. Every run included standard controls (i.e., either without reverse transcriptase or lacking template). Relative quantities of myocilin mRNA abundance were determined using differences in threshold cycles (“Ct”) between vehicle control and drug treatments. Each sample was analyzed in triplicate wells, and the corresponding values averaged for further quantitative analysis. Myocilin mRNA abundance, expressed in proportion to vehicle control-treated samples, was calculated using the Mx3005P software.
Data underwent Box-Cox transformations for one- or two-way analysis of variance (ANOVA), followed by the Tukey-Kramer test, using JMP software (SAS, Cary, N.C.). The specific transformations used for analyses are mentioned in the figure legends. For each set of triplicate samples from the individual monkey TM cell strains tested, Western blot densitometry values for myocilin protein detected in CM (as geometric means), and relative abundance of myocilin mRNA (as geometric means), were plotted as a function of drug concentrations. P-values less than 0.05 were considered statistically significant. […]

[2] = tested on: PGE2 in the aqueous humor; experiment: Prostaglandin E2 (PGE2) measurement in aqueous humor, rabbit paracentesis model; type: in vivo; conditions: second paracentesis; for PGE2 level in aqueous humor, Mean: group mean; for PGE2 level in aqueous humor: individual eye
Protocol: Each rabbit was placed in a restraint device and tagged with the alphanumeric code. The formulations were instilled (50 μl) into the conjunctival sac of both eyes 180, 120, 90 and 30 min before the first paracentesis; then 15, 30, 90 min after the first paracentesis. To perform the first paracentesis the animals were anaesthetized by intravenous injection of 5 mg/kg Zoletil® (Virbac; 2.5 mg/kg tiletamine HCl and 2.5 mg/kg zolazepam HCl) and one drop of local anesthetic (Novesina®, Novartis) was administered to the eye. Anterior chamber paracentesis was performed with a 26 G needle attached to a tuberculin syringe; the needle was introduced into the anterior chamber through the cornea, taking care not to damage the tissues. Two hours after the first paracentesis, the animals were sacrificed with 0.4 ml Tanax® (Intervet International B.V.) and the second paracentesis was performed. About 100 μl of aqueous humor were removed at the second paracentesis. Aqueous humor was immediately split in four aliquots and stored at −80° C. until analysis. Then both eyes were enucleated and the iris-ciliary body was carefully excised, placed in polypropylene tubes, and stored at −80° C. until analysis.
For the quantitative determination of PGE2 in the aqueous humor we used the PGE2 Immunoassay kit (R&D Systems; Cat. No. KGE004; Lot. No. 240010). Eleven microliters or 16 μl of aqueous humor were diluted to 110 μl or 160 μl with the calibrator diluent solution provided with the kit. One hundred microliters of samples and of standards were load into a 96-well plate and recorded in a plate layout. Samples were treated following the assay procedure described in the kit. A microplate reader (GDV, Italy; model DV 990 B/V6) set at 450 nm (wavelength correction at 540 nm) was used for making the calibration and analyzing the samples.

[3] = tested on: myocilin protein in CM of monkey TM cells; experiment: Myocilin protein in conditioned media of monkey TM cells (Western blot); type: cell-based, rhesus monkeys (Macaca mulatta); conditions: for EC50: nine monkey TM cell strains; for Efficacy ± SE (weighted average; %): estimated efficacy at 300 nM for inducing myocilin protein expression, normalized to DEX (100%), nine experiments (one per strain)
Protocol: as §1
All treatments, including media for vehicle control samples, contained a final DMSO concentration of 0.1% (v/v) across the concentration ranges selected. Treatments lasted 96 hours, with one exchange of medium on the third treatment day. The final 48-hr conditioned media (“CM”) samples were collected in their entirety (0.5 ml), centrifuged briefly to remove particulates, aliquoted, and stored at −20° C. until thawed for analysis.
Undiluted CM was combined with denaturing 4× sample buffer containing 2% SDS, and samples were loaded at equivalent protein content onto 4-20% Tris-HCl polyacrylamide gels (BioRad, Hercules, Calif.). After electrophoresis, proteins underwent wet transfer to […] nitrocellulose (BioRad) for immunoblotting. The filters were blocked with 5% (w/v) nonfat dry milk (BioRad) in Tris-buffered saline plus 0.02% (v/v) Tween-20 (“TBST”; Tween-20 from Calbiochem, San Diego, Calif.), and incubated with a 1:2000 dilution (from 200 μg/ml) of goat anti-recombinant human myocilin antibody (R&D Systems, Minneapolis, Minn.) in blocking buffer, overnight at 4° C. After washing in TBST, the filters were incubated with a 1:25,000 dilution (from 0.8 mg/ml) of horseradish peroxide-conjugated mouse anti-goat IgG (H+L) (Pierce Biotechnology, Rockford, Ill.) in blocking buffer, for 90 minutes at room temperature. After washing in TBST, the blots were developed in SuperSignal® West Dura Extended Duration Substrate (Pierce) for chemiluminescent detection. Bands corresponding to myocilin were digitally captured and stored using a FluorChem Imager (Alpha-Innotech, San Leandro, Calif.), with all blots receiving equal exposure/capture times. The imager system software was then used to calculate pixel density for equivalent rectangular areas incorporating the bands.
Data underwent Box-Cox transformations for one- or two-way analysis of variance (ANOVA), followed by the Tukey-Kramer test, using JMP software (SAS, Cary, N.C.). The specific transformations used for analyses are mentioned in the figure legends. For each set of triplicate samples from the individual monkey TM cell strains tested, Western blot densitometry values for myocilin protein detected in CM (as geometric means), and relative abundance of myocilin mRNA (as geometric means), were plotted as a function of drug concentrations. P-values less than 0.05 were considered statistically significant. Dose-response curve data were fitted to a re-parameterized four-parameter logistic equation using similar methodology to that previously described, and these equations permitted estimation of the EC50 values±95% confidence intervals, for each drug treatment.

[4] = Primates, expression of myocilin protein, weighted averages, read-out: EC50 ± SE
[5] = Primates, 96 hours treatment, read-out: EC50, myocilin protein expression

EC50 ([1]; Primates) [nM]	EC50 [3, 4] [nM]	EC50 [3, 5] [nM]	SMILES	Myocilin mRNA abundance compared with DEX ([1]; 3 to 300 nM)	Emax at 0.3 µM ([1]; Primates, read-out: Maximal efficacy for myocilin mRNA expression, relative to DEX, 300 nM, single monkey TM cell strain (FIG. 5)) [%]	PGE2 level in aqueous humor, Mean ([2]; 0.1% topical formulation) [ng/mL]	PGE2 level in aqueous humor ([2]; 0.1% topical formulation, listed as BOL)	PGE2 level in aqueous humor, Mean ([2]; 0.5% topical formulation) [ng/mL]	PGE2 level in aqueous humor ([2]; 0.5% topical formulation, listed as BOL)	PGE2 level in aqueous humor, Mean ([2]; 1% topical formulation) [ng/mL]	PGE2 level in aqueous humor ([2]; 1% topical formulation, listed as BOL)	Myocilin protein released by cultured monkey TM cells compared to DEX ([3]; 3 to 300 nM)	Emax ([3]; Primates, read-out: Maximal efficacy for myocilin protein accumulation, relative to that observed after DEX treatment, computed across all nine TM cell strains) [%]	Efficacy ± SE (weighted average; %) [3] [%]	PGE2 level in aqueous humor ([2]; 0.1% topical formulation)	Myocilin protein level over control ([3]; 300 nM, one of the monkey TM cell strains, CM of second 48-hour period) [%]
20.8 ± 2.74	21 ± 4.28	21	Cc1ccc2c(NCC(O)(CC(C)(C)c3cc(F)cc4c3OCC4)C(F)(F)F)cccc2n1 (stereo not drawn) [BOL-303242-X]	significantly lower mRNA abundance values at all doses compared with DEX	~67	1.452	1.62 ng/mL and 1.88 ng/mL and 2.15 ng/mL and 0.70 ng/mL and 1.34 ng/mL and 1.03 ng/mL	1.384	2.31 ng/mL and 2.59 ng/mL and 0.53 ng/mL and 0.75 ng/mL and 0.80 ng/mL and 1.62 ng/mL and 1.09 ng/mL	2.168	0.50 ng/mL and 1.87 ng/mL and 1.71 ng/mL and 4.04 ng/mL and 1.11 ng/mL and 3.78 ng/mL	significantly lower levels of myocilin protein	~50	53.12 ± 2.20		
14.7 ± 1.27	14.6 ± 2.65	14.6	C[C@@H]1C[C@H]2[C@@H]3CCC4=CC(=O)C=C[C@]4(C)[C@@]3(F)[C@@H](O)C[C@]2(C)[C@@]1(O)C(=O)CO [Dex, dexamethasone, reference compound]			2.263								100 ± 6.09	2.51 ng/ml and 2.32 ng/ml (2×) and 2.10 ng/ml and 3.03 ng/ml and 1.30 ng/ml	1233
